Patent US20250325517A1, “ORAL DOSAGE FORMS OF ELRAGLUSIB” (Actuate Therapeutics, Inc., priority 2022, published 2025)

Test: Kinetic solubility of six ASDs in biorelevant media (SGF, FaSSIF, FeSSIF) at 37° C., 1 and 2 h
Assay type: physicochemical
Procedure: The three biorelevant media were: SGF, FaSSIF, and FeSSIF. These were prepared using procedure and FaSSIF/FeSSIF/FaSSGF Powder obtained from Biorelevant.com (https://biorelevant.com/learning_center/how-make-fassif/). A suspension of each ASD was prepared in SGF, FaSSIF, and FeSSIF and each was allowed to stir at 400 rpm. An aliquot of the supernatant was taken out at 1 and 2 hours, syringe filtered using a cellulose acetate filter ([…] pore size) and analyzed by HPLC. The solubilities of each ASD in SGF, FaSSIF, and FeSSIF are presented in Table 2A-8, Table 2A-9, and Table 2A-10, respectively. […] In addition, at 2 hours the remaining solids were analyzed by XRPD. […] These peaks correspond to residual FeSSIF buffer crystallizing on the ASD solids upon drying. (See Tables 2A-8, -9, and -10).

Cn1cc(C2=C(c3coc4ccc(F)cc34)C(=O)NC2=O)c2cc3c(cc21)OCO3 [NA]
1 hr solubility in FeSSIF (n = 2) (37° C., 400 rpm): 5 µg/mL
2 hr solubility in FeSSIF (n = 2) (37° C., 400 rpm): 6 µg/mL
XRPD after FeSSIF (solids remaining at 2 hours): Form I + one peak ~9°
